In PubChem BioAssay (NCI):
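Growth conditions: 96-well plates. Treatment: test compound, 48 hours, 5 concentrations. Analysis: linear interpolation between bracketing concentrations; unreached endpoints set to highest concentration. TGI: total growth inhibition.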

Legend:
Assay in all cases: growth of human tumour cells (NCI), 48 h
MALME-3M melanoma = system: MALME-3M melanoma
HL-60(TB) leukemia = system: HL-60(TB) leukemia
NCI-H522 lung = system: NCI-H522 lung
NCI-H460 lung = system: NCI-H460 lung
OVCAR-3 ovarian = system: OVCAR-3 ovarian
SNB-19 CNS = system: SNB-19 CNS
SN12C renal = system: SN12C renal
HS 578T breast = system: HS 578T breast
BT-549 breast = system: BT-549 breast
PC-3 prostate = system: PC-3 prostate

Row | SMILES | TGI (MALME-3M melanoma) | TGI (HL-60(TB) leukemia) | TGI (NCI-H522 lung) | TGI (NCI-H460 lung) | TGI (OVCAR-3 ovarian) | TGI (SNB-19 CNS) | TGI (SN12C renal) | TGI (HS 578T breast) | TGI (BT-549 breast) | TGI (PC-3 prostate)
1 | COc1ccc2c3c1OC1CC(O)C=CC31CCN(C)C2 (stereo not drawn) | > 150 µM | > 150 µM | > 150 µM | > 150 µM | > 150 µM | > 150 µM | > 150 µM | – | – | –
2 | CC(=O)NCCCCNCCCNC(C)=O | > 100 µM | > 100 µM | > 100 µM | > 100 µM | – | > 100 µM | > 100 µM | > 100 µM | > 100 µM | –
3 | CCCC/C=C1\CCC(CN2CCCCC2)C1=O (stereo not drawn) | 15.4 µM | 14.4 µM | – | 55.5 µM | 46 µM | 49.4 µM | 25.9 µM | > 100 µM | > 100 µM | > 100 µM
4 | CSc1c(C(=O)Nc2ccccc2)c(N)nn1-c1ccccc1 | > 100 µM | > 100 µM | – | > 100 µM | > 100 µM | > 100 µM | > 100 µM | > 100 µM | > 100 µM | > 100 µM
5 | CCOC(=O)/C(=C\NCC(O)c1ccccc1)c1nc2ccccc2[nH]1 (stereo not drawn) | 52 µM | 37.1 µM | 49 µM | 50.5 µM | > 100 µM | > 100 µM | > 100 µM | 39.5 µM | 98.7 µM | –
6 | Cc1cnoc1NC1=CC(=O)C(=O)c2ccccc21 | 9.81 µM | – | > 100 µM | > 100 µM | > 100 µM | 73.5 µM | 3.53 µM | > 100 µM | > 100 µM | > 100 µM
7 | CC(=O)OC(Cc1cc(C=C(C(F)(F)F)C(F)(F)F)cc(C)n1)(C(F)(F)F)C(F)(F)F | > 20.8 µM | 1.18 µM | – | 5.09 µM | 3.57 µM | 4.38 µM | 3.16 µM | 18 µM | 4.96 µM | 5.34 µM
8 | Cc1cc2c(cc1Cl)Sc1nnc(Nc3ccccc3)n1S2(=O)=O | – | 16.4 µM | 14.2 µM | 33.2 µM | 7.1 µM | – | – | 12.6 µM | 34 µM | 22.1 µM
9 | C=CCC(C)C12CCNC(Cc3ccc(O)cc31)C2C (stereo not drawn) | > 100 µM | – | – | > 100 µM | – | > 100 µM | > 100 µM | > 100 µM | – | –
10 | C=CC(=O)N1C/C(=C\c2ccc(N(C)C)cc2)C(=O)/C(=C/c2ccc(N(C)C)cc2)C1 | > 100 µM | – | – | > 100 µM | > 100 µM | > 100 µM | > 100 µM | > 100 µM | > 100 µM | > 100 µM
11 | O=C(Nc1ccccc1)O/N=C(/CBr)c1ccccc1 | 33.9 µM | 32.5 µM | 29.3 µM | 43.1 µM | 37.9 µM | 53.9 µM | 25 µM | 90.6 µM | – | 30.3 µM
12 | O=C(Nc1ccccc1F)c1c(O)nc2sccn2c1=O | > 10 µM | > 10 µM | > 10 µM | > 10 µM | > 10 µM | > 10 µM | > 10 µM | > 10 µM | – | > 10 µM
